The PolyMetriX glass transition set
± gives the standard deviation of the reports.

First: *Oc1ccc(C(c2ccc(OC(=O)c3ccc(Oc4ccc(C(*)=O)cc4)cc3)cc2)(C(F)(F)F)C(F)(F)F)cc1 (repeat unit)
Second: *CCCCCOc1ccc(OC(=O)c2ccc(C(=O)Oc3ccc(O*)cc3)cc2)cc1 (repeat unit)
The glass transition temperature of the first is higher: 181.00 °C for the first, 112.00 °C for the second.

Going from *c1cccc(P(=O)(c2cccc(-n3c(=O)c4cc5c(=O)n(*)c(=O)c5c(-c5cc(C(F)(F)F)cc(C(F)(F)F)c5)c4c3=O)c2)c2cc(C(F)(F)F)cc(C(F)(F)F)c2)c1 (repeat unit) to *c1ccc2c(c1)C(=O)N(c1cc(Oc3c(C)cc(-c4cc(C)c(Oc5cc(N6C(=O)c7ccc(C(*)(C(F)(F)F)C(F)(F)F)cc7C6=O)cc(C(F)(F)F)c5)c(C)c4)cc3C)cc(C(F)(F)F)c1)C2=O (repeat unit), the glass transition temperature falls from 280.00 °C to 264.80 °C.

Going from *CC(*)(C)C(=O)OCc1cccc(Cl)c1Cl (repeat unit) to *CC(*)(C)C(=O)OCC(F)(F)C(F)(F)F (repeat unit), the glass transition temperature rises from 42.60 °C to 77.00 °C.

First: *OS(=O)(=O)c1ccc(*)cc1 (repeat unit)
Second: */N=N/c1ccc([Te]c2ccc(*)cc2)cc1 (repeat unit)
The glass transition temperature of the first is lower: 119.00 °C for the first, 300.00 °C for the second.

Compared with *Oc1ccc(Oc2ccc(/C=N/CCCCCCCCCCCC/N=C/c3ccc(*)cc3)cc2)cc1 (repeat unit), *C(=O)OCCCCCCCCCCCCOC(=O)c1ccc2c(c1)C(=O)N(c1ccc(Oc3ccc(N4C(=O)c5ccc(*)cc5C4=O)cc3)cc1)C2=O (repeat unit) is lower in glass transition temperature: 118.00 °C for the first, 105.00 °C for the second.

Compared with *c1ccc2c(c1)C(=O)N(c1cccc(C(=O)Nc3ccc(NC(=O)c4ccc(NC(=O)c5cccc(N6C(=O)c7ccc(C(*)(C(F)(F)F)C(F)(F)F)cc7C6=O)c5)cc4)cc3)c1)C2=O (repeat unit), *C(=O)Nc1ccc2c(c1)Cc1cc(NC(=O)c3ccc4c(c3)C(=O)N(c3ccc(NC(=O)Nc5ccc(N6C(=O)c7ccc(*)cc7C6=O)cc5)cc3)C4=O)ccc1-2 (repeat unit) is lower in glass transition temperature: 328.00 °C for the first, 224.00 °C for the second.

Going from *CC(*)C(=O)OCCCCCCCCOC(=O)c1ccc(OC(=O)c2ccc(C#N)cc2)cc1 (repeat unit) to *CC(*)(C)C(=O)OCCCCOc1ccc(OC(=O)c2ccc(OCCCCCC)cc2)cc1 (repeat unit), the glass transition temperature rises from 15.00 °C to 34.00 °C.

Going from *c1ccc(Oc2ccc(P(=O)(c3ccccc3)c3ccc(Oc4ccc(-c5nc(-c6ccccc6)[nH]c5*)cc4)cc3)cc2)cc1 (repeat unit) to *Oc1ccc(Oc2ccc(C(=O)Nc3ccc(Oc4ccc(S(=O)(=O)c5ccc(Oc6ccc(NC(=O)c7ccc(*)cc7)cc6)cc5)cc4)cc3)cc2)cc1-c1ccccc1 (repeat unit), the glass transition temperature falls from 318.00 °C to 231.00 °C.

Going from *CC(*)(C)C(=O)Oc1ccc(/N=N/c2ccc(OC)cc2)cc1 (repeat unit) to *COc1ccc(C(=O)OC(=O)c2ccc(O*)cc2)cc1 (repeat unit), the glass transition temperature falls from 120.00 °C to 84.00 °C.

Compared with *C(=O)c1ccc2c(c1)C(=O)N(c1cc(N3C(=O)c4ccc(*)cc4C3=O)cc(C(F)(F)F)c1)C2=O (repeat unit), *C(=O)c1ccc2c(c1)C(=O)N(c1ccc(C(=O)Nc3cccc(N4C(=O)c5ccc(*)cc5C4=O)c3)cc1)C2=O (repeat unit) is higher in glass transition temperature: 294.8 ± 1.1 °C for the first, 311.00 °C for the second.

Going from *C1C(*)C2CC1C(C(=O)OCCC13CC4CC(CC(C4)C1)C3)C2C(=O)OCCC12CC3CC(CC(C3)C1)C2 (repeat unit) to *c1ccc2c(c1)C(=O)N(c1cc(C(c3ccc(OC(=O)C45CC6CC(CC(C6)C4)C5)c(N4C(=O)c5ccc(C(*)(C(F)(F)F)C(F)(F)F)cc5C4=O)c3)(C(F)(F)F)C(F)(F)F)ccc1OC(=O)C13CC4CC(CC(C4)C1)C3)C2=O (repeat unit), the glass transition temperature rises from 300.00 °C to 305.00 °C.

First: *Oc1c(-c2ccccc2)cc(*)cc1-c1cccc(C)c1 (repeat unit)
Second: */C(=N\c1ccccc1)c1ccc(-c2ccc(*)cc2)cc1 (repeat unit)
The glass transition temperature of the first is lower: 219.00 °C for the first, 225.00 °C for the second.

First: *C(=O)c1ccc2c(c1)C(=O)N(c1ccc(N(c3ccc(C#N)cc3)c3ccc(N4C(=O)c5ccc(*)cc5C4=O)cc3)cc1)C2=O (repeat unit)
Second: *C(=O)c1ccc2c(c1)C(=O)N(c1ccc(C(=O)N(C)c3ccc(N4C(=O)c5ccc(*)cc5C4=O)cc3)cc1)C2=O (repeat unit)
The glass transition temperature of the first is higher: 315.00 °C for the first, 313.00 °C for the second.

First: *c1cccc(C(F)(F)C(F)(F)C(*)(F)F)c1 (repeat unit)
Second: *c1ccc(-c2nc3ccccc3o2)c(*)c1 (repeat unit)
The glass transition temperature of the first is lower: 29.00 °C for the first, 229.00 °C for the second.

First: *c1ccc(Oc2ccc(S(=O)(=O)c3ccc(Oc4ccc(C5(*)OC(=O)c6ccccc65)cc4C)cc3)cc2)c(C)c1 (repeat unit)
Second: *Oc1ccc(Oc2ccc(S(=O)(=O)c3ccc(-c4ccc(-c5ccc(S(=O)(=O)c6ccc(*)cc6)cc5)cc4)cc3)cc2)cc1 (repeat unit)
The glass transition temperature of the first is lower: 245.00 °C for the first, 259.00 °C for the second.

First: *C1CCC(*)C1 (repeat unit)
Second: *CC(*)(C)C(=O)OC1CCCCC1C (repeat unit)
The glass transition temperature of the first is lower: 65.10 °C for the first, 85.00 °C for the second.

Compared with *c1ccc(Oc2c(C)cc(C(c3cccnc3)c3cc(C)c(Oc4ccc(N5C(=O)CC(Nc6ccc(Cc7ccc(NC8CC(=O)N(*)C8=O)cc7)cc6)C5=O)cc4)c(C)c3)cc2C)cc1 (repeat unit), *Oc1ccc(Nc2ccc(S(=O)(=O)c3ccc(Nc4ccc(Oc5ccc(C(C)(C)c6ccc(*)cc6)cc5)cc4)cc3)cc2)cc1 (repeat unit) is lower in glass transition temperature: 201.00 °C for the first, 145.00 °C for the second.

Compared with *CC1CCC(COC(C)OC(=O)c2ccc(C(=O)OC(C)O*)c3ccccc23)CC1 (repeat unit), *Oc1ccc(CC(NC(=O)CCc2ccc(OC(=O)CCCC(*)=O)cc2)C(=O)OC(C)CC)cc1 (repeat unit) is lower in glass transition temperature: 60.00 °C for the first, 52.00 °C for the second.

Going from *CC(*)c1ccc(COC(C)CC)cc1 (repeat unit) to *CC(*)c1ccc(OCCC(C)C)cc1 (repeat unit), the glass transition temperature rises from 40.00 °C to 57.00 °C.

First: *Oc1ccc(NC(=O)/C=C/C(=O)NNC(=O)/C=C/C(=O)Nc2ccc(OC(=O)/C=C/C(=O)NNC(=O)/C=C/C(*)=O)cc2)cc1 (repeat unit)
Second: *Oc1ccc(CC(NC(=O)CCc2ccc(OC(=O)CCC(*)=O)cc2)C(=O)OCCCC)cc1 (repeat unit)
The glass transition temperature of the first is higher: 265.00 °C for the first, 67.00 °C for the second.

Going from *CC(*)C(=O)Nc1ccc(Cl)cc1 (repeat unit) to *CC(*)C(=O)c1ccc(Br)c(OC)c1 (repeat unit), the glass transition temperature falls from 76.00 °C to 44.00 °C.

First: *CCC(C)CCOC(=O)CCCCC(=O)O* (repeat unit)
Second: *CCOCCOC(=O)CCCCC(=O)O* (repeat unit)
The glass transition temperature of the first is lower: -78.60 °C for the first, -51.00 °C for the second.

First: *c1cc(OCCCC)cc(N2C(=O)c3ccc(Oc4ccc5c(c4)C(=O)N(*)C5=O)cc3C2=O)c1 (repeat unit)
Second: *C(=O)Nc1ccc(/N=N/c2ccc([N+](=O)[O-])cc2)c(NC(=O)c2ccc3c(c2)C(=O)N(c2c(C)cc(-c4cc(C)c(N5C(=O)c6ccc(*)cc6C5=O)c(C)c4)cc2C)C3=O)c1 (repeat unit)
The glass transition temperature of the first is lower: 237.00 °C for the first, 278.00 °C for the second.

Going from */C=C(/*)CCCOc1ccc(OC(=O)c2ccc(OCCCCCCCC)cc2)cc1 (repeat unit) to *O[Si](C)(C)CCCCCCOC(=O)C(C)Oc1ccc(OC(=O)c2ccc(-c3ccc(OCCCCCCCCCC[Si](*)(C)C)cc3)cc2)cc1[N+](=O)[O-] (repeat unit), the glass transition temperature falls from 42.00 °C to 20.00 °C.

Compared with *Sc1ccc(Sc2ccc(Sc3ccc4c(c3)Sc3ccc(*)cc3S4)cc2)cc1 (repeat unit), *Nc1cc(NC(=O)c2ccc(C(*)=O)cc2)cc(-c2nc3ccccc3oc2=O)c1 (repeat unit) is lower in glass transition temperature: 154.00 °C for the first, 103.00 °C for the second.

First: *C(=O)Nc1ccc(Oc2ccc(Oc3ccc(NC(=O)c4ccc5c(c4)C(=O)N(c4ccc(Oc6ccc(C7(c8ccc(Oc9ccc(N%10C(=O)c%11ccc(*)cc%11C%10=O)cc9)cc8)NC(=O)c8ccccc87)cc6)cc4)C5=O)cc3)cc2)cc1 (repeat unit)
Second: *c1ccc(Oc2ccc(-c3nc4cc(Oc5ccc(NC(=O)c6ccc7c(c6)C(=O)N(c6ccc(C(c8ccc(N9C(=O)c%10ccc(C(=O)Nc%11ccc(Oc%12ccc%13nc(-c%14ccccc%14)c(*)nc%13c%12)cc%11)cc%10C9=O)cc8)(C(F)(F)F)C(F)(F)F)cc6)C7=O)cc5)ccc4nc3-c3ccccc3)cc2)cc1 (repeat unit)
The glass transition temperature of the first is higher: 300.00 °C for the first, 289.00 °C for the second.

Compared with *C(=O)c1ccc(C(=O)N(*)c2ccccc2)cc1 (repeat unit), *Nc1ccc(Cc2ccc(NC(=O)CCCCCCCC(*)=O)cc2)cc1 (repeat unit) is lower in glass transition temperature: 179.00 °C for the first, 140.00 °C for the second.

Compared with *OC(=O)OCCCCCCOC(=O)OC1COC2C(*)COC12 (repeat unit), *CCCCCCNC(=O)CCCC(=O)O* (repeat unit) is lower in glass transition temperature: 27.50 °C for the first, -18.00 °C for the second.

First: *OC(CCCCCCC=C)CC(*)=O (repeat unit)
Second: *CC(=O)NCCCCCCNC(=O)Cc1ccc(O*)cc1 (repeat unit)
The glass transition temperature of the first is lower: -50.00 °C for the first, 69.50 °C for the second.

Compared with *O[Si](C)(C)O[Si](C)(C)O[Si](C)(C)O[Si](C)(c1ccccc1)c1cccc([Si](*)(C)c2ccccc2)c1 (repeat unit), *Oc1cccc(N(c2ccccc2)c2ccc(-c3ccc(N(c4ccccc4)c4cccc(OC(=O)OCCOCCOC(*)=O)c4)cc3)cc2)c1 (repeat unit) is higher in glass transition temperature: -42.00 °C for the first, 113.00 °C for the second.

Compared with *C/C(C)=C/C(C)S(*)(=O)=O (repeat unit), *CCCCCCOP(=O)(/N=N/c1ccc(C(=O)c2ccc(/N=N/P(=O)(O*)OC)cc2)cc1)OC (repeat unit) is lower in glass transition temperature: 83.00 °C for the first, 31.00 °C for the second.

Compared with *CCN(CCOC(=O)c1cc(OCc2c(F)c(F)c(OC)c(F)c2F)cc(C(=O)O*)c1)c1ccc(/C=C/c2ccc(/C=C/C3=C(C#N)C(=C(C#N)C#N)OC3(c3ccccc3)C(F)(F)F)s2)cc1 (repeat unit), *O[Si](C)(C)CCCC(=O)Oc1ccc(/C=N/c2ccc(Oc3ccc(/N=C/c4ccc(OC(=O)CCC[Si](*)(C)C)cc4)cc3)cc2)cc1 (repeat unit) is lower in glass transition temperature: 140.00 °C for the first, 52.00 °C for the second.
